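Five compound concentrations were applied to cells in 96-well plates for 48 hours; endpoints were derived by simple linear interpolation of the resulting dose-response curve. GI50: concentration for 50% inhibition of growth. TGI: total growth inhibition.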 Where a SMILES comes first, the peptide text is derived from it. Peptide text beside a SMILES is read from it. The star is where a group is joined. * marks the point of attachment. Palmitoyl = CCCCCCCCCCCCCCCC(=O)*; Boc = CC(C)(C)OC(=O)*
Key:
Experiment in all cases: inhibition of tumour cell growth, NCI panel, 48 h
RPMI-8226 leukemia = test system: RPMI-8226 leukemia
UACC-62 melanoma = test system: UACC-62 melanoma
SK-MEL-28 melanoma = test system: SK-MEL-28 melanoma
HOP-92 NSCLC = test system: HOP-92 NSCLC
HL-60(TB) leukemia = test system: HL-60(TB) leukemia
MOLT-4 leukemia = test system: MOLT-4 leukemia
CAKI-1 renal = test system: CAKI-1 renal
ACHN renal = test system: ACHN renal
HT29 colon = test system: HT29 colon
NCI-H460 lung = test system: NCI-H460 lung

Structure (SMILES) | TGI (RPMI-8226 leukemia) | TGI (UACC-62 melanoma) | TGI (SK-MEL-28 melanoma) | TGI (HOP-92 NSCLC) | TGI (HL-60(TB) leukemia) | TGI (MOLT-4 leukemia) | TGI (CAKI-1 renal) | TGI (ACHN renal) | TGI (HT29 colon) | TGI (NCI-H460 lung) | GI50 (RPMI-8226 leukemia) | GI50 (SK-MEL-28 melanoma) | GI50 (HOP-92 NSCLC) | GI50 (HL-60(TB) leukemia) | GI50 (MOLT-4 leukemia) | GI50 (NCI-H460 lung) | GI50 (CAKI-1 renal) | GI50 (HT29 colon)
CCN(CC)c1ccc(C(=C2C=CC(=[N+](CC)CC)C=C2)c2ccccc2)cc1 | 0.0683 µM | 0.231 µM | 0.351 µM | 0.0971 µM | 0.0318 µM | 0.0383 µM | 0.504 µM | 0.145 µM |  |  |  |  |  |  |  |  |  | 
COC1(OC)N=C(N)C2(C#N)/C(=N/N(C)C)CC(C)C12C#N (stereo unspecified) |  | > 100 µM | > 100 µM | > 100 µM | > 100 µM | > 100 µM | > 100 µM | > 100 µM | > 100 µM |  |  |  |  |  |  |  |  | 
CSCCC(NC(=O)C(CC(C)C)NC(=O)CNC(=O)OC(C)(C)C)C(=O)N(C)C (stereo not drawn) (Boc-Gly-Leu-Met-NMe2; configuration not given here) |  | > 100 µM | > 100 µM | > 100 µM | > 100 µM | > 100 µM | > 100 µM | > 100 µM | > 100 µM |  |  |  |  |  |  |  |  | 
CC(=O)Nc1ncc2c(n1)-c1ccccc1OC2 | > 100 µM | > 100 µM |  | > 100 µM | > 100 µM | > 100 µM | > 100 µM | > 100 µM | > 100 µM | > 100 µM |  |  |  |  |  |  |  | 
Cc1nn(C(=O)c2ccccc2O)c2c1C(c1ccc(O)cc1)SC(N)=N2 (stereo unspecified) | > 5.38 µM | > 10 µM | > 10 µM |  | > 4.33 µM | > 10 µM | > 10 µM | > 10 µM | > 10 µM | > 10 µM |  |  |  |  |  |  |  | 
COc1ccc(-c2c(C(C)=O)c(C)n(C3OC(CO)C(O)C(O)C3O)c(=S)c2C#N)cc1 (stereo unspecified) | > 100 µM | > 100 µM | > 100 µM |  | > 100 µM | > 100 µM | > 100 µM | > 100 µM | > 100 µM | > 100 µM |  |  |  |  |  |  |  | 
COc1ccc(S(=O)(=O)Nc2ccc(-c3csc(N4C(=O)/C(=C/C=C\c5ccccc5)N=C4c4ccccc4)n3)cc2)cc1Cl |  | 49.9 µM | > 100 µM | 41.1 µM | 59.9 µM | > 100 µM | > 100 µM | > 100 µM | > 100 µM | > 100 µM |  |  |  |  |  |  |  | 
COC(=O)CNC(=O)/C=C/[C@H](O[Si](C)(C)C(C)(C)C)[C@H](/C=C/C(=O)NCC(=O)OC)O[Si](C)(C)C(C)(C)C | > 25 µM | > 25 µM | > 25 µM | > 25 µM |  | > 25 µM | > 25 µM | > 25 µM | > 25 µM | > 25 µM |  |  |  |  |  |  |  | 
CC(=O)OCC1OC(n2c3c(c(-c4ccco4)c(C#N)c2=S)CCCC3)C(OC(C)=O)C(OC(C)=O)C1OC(C)=O (stereo unspecified) | > 100 µM |  | > 31.6 µM | 19.3 µM |  | > 31.6 µM | 87.8 µM | > 31.6 µM | > 31.6 µM | > 31.6 µM |  |  |  |  |  |  |  | 
c1csc(-c2ccc(-c3ccc(-c4cccs4)s3)s2)c1 | > 100 µM | > 100 µM | > 100 µM |  | > 100 µM | > 100 µM | > 100 µM | > 100 µM | > 100 µM | > 100 µM |  |  |  |  |  |  |  | 
O=C1N2CCc3c([nH]c4ccccc34)C23CC2CCCC12S3 (stereo unspecified) | > 50 µM | > 50 µM | > 50 µM | > 50 µM | > 50 µM | > 50 µM | > 50 µM | > 50 µM | > 50 µM |  |  |  |  |  |  |  |  | 
COCCCN1C(=O)C2c3[nH]c4ccccc4c3C3CCC(C(C)(C)C)CC3C2C1=O (stereo unspecified) | 56.1 µM | > 10 µM | > 100 µM |  | 54.5 µM | 70 µM | 55 µM | 83.9 µM | 34 µM | 36.2 µM |  |  |  |  |  |  |  | 
CCCCCCCCCCCCCCCC(=O)NC(CCCCN)C(=O)NCC(=O)NC(Cc1ccccc1)C(=O)N1CCCC1C(=O)NC(CO)C(=O)NC(Cc1ccc(O)cc1)C(=O)NC(CCCCN)C(=O)NC(CC(C)C)C(=O)NC(CCCN=C(N)N)C(=O)N1CCCC1C(=O)NCC(N)=O (stereo unspecified) (Palmitoyl-KGFPSYKLRPG-NH2; configuration not given here) | 32.5 µM |  | 68.2 µM | 45.4 µM | 39.9 µM | 32.7 µM | 42.8 µM |  | 30.7 µM | 37.2 µM | 13.1 µM | 28.6 µM | 19.3 µM | 19.1 µM | 16.5 µM | 19.2 µM | 16.4 µM | 17 µM
Clc1ncc(C(Cl)(Cl)Cl)nc1-c1ccccc1 |  | 7.27 µM | 60.6 µM | 4.5 µM | 6.41 µM | 28.9 µM | 5.46 µM | 3.19 µM | 3.65 µM | 11.3 µM |  |  |  |  |  |  |  | 
COC(=O)CCc1ccc2c(c1)CC1(C2)Cc2ccc(CCC(=O)OC)cc2C1 | 89.7 µM | > 100 µM |  | 99.7 µM | 38.7 µM | > 100 µM |  | > 100 µM | > 100 µM |  |  |  |  |  |  |  |  | 
CN(C)CCn1c(=O)c2ccc(NCCNCCO)c3c(=O)c4cc(O)ccc4n(c1=O)c23 | 8.43 µM | 4.23 µM | 17 µM | 4.56 µM | 4.61 µM | 1.17 µM |  | 8.64 µM | 5.2 µM | 4.51 µM |  |  |  |  |  |  |  | 
COc1cc([C@@H]2c3cc4c(cc3[C@@H](Nc3ccc(Cl)cc3C(=O)c3ccccc3Cl)[C@H]3COC(=O)[C@H]23)OCO4)cc(OC)c1OC |  | > 72.4 µM | 34 µM |  |  | > 100 µM | > 43.3 µM |  | > 100 µM |  |  |  |  |  |  |  |  | 
Fc1nc(F)nc(-c2c3ccccc3c3n2CCS3)n1 | > 100 µM |  | > 100 µM | > 100 µM | > 100 µM |  | > 100 µM | > 100 µM | > 100 µM | > 100 µM |  |  |  |  |  |  |  | 
COc1cc2c(cc1OC)C1Cc3ccccc3CN1CCC2 (stereo unspecified) |  | > 100 µM | > 100 µM | > 100 µM |  | > 100 µM | > 100 µM | > 100 µM | > 100 µM | > 100 µM |  |  |  |  |  |  |  | 
C=C(CCC(C(=O)O)C1CCC2(C)C3=C(CCC12C)C1(C)CCC(O)C(C)(C)C1CC3)C(C)C (stereo unspecified) | 79.7 µM | > 100 µM | > 100 µM | > 100 µM |  | > 100 µM | > 100 µM | > 100 µM | > 100 µM | 37.5 µM |  |  |  |  |  |  |  | 
c1ccc(COc2ncccc2C2SCCCS2)cc1 | > 100 µM | > 100 µM | > 100 µM | > 100 µM |  |  | > 100 µM | > 100 µM |  |  |  |  |  |  |  |  |  | 
